Results from patent US20060234997A1, “Tetrahydro-pyridoazepin-8-ones and related compounds for the treatment of schizophrenia” (WARNER-LAMBERT COMPANY LLC, priority 2005, published 2006).
Counter-ions that a name gives are not always drawn. Marks after values point to notes of the source that are not given here.

Assays:
[1] = molecular target: T1, Dopamine D2 receptor (hD2L) (Homo sapiens, UniProt P14416); test: Dopamine D2 Receptor Binding Assay ([3H]spiperone, CHO-hD2L membranes); conditions: [3H]spiperone 0.4 nM, membrane preparation from CHO-hD2L cells
T1 construct: expressed in transfected cells; host or cells: CHO cells (CHO-hD2L)
Description: The ability of the novel compounds of this invention to bind to the dopamine D2 receptor can be determined using conventional radioligand receptor binding assays. All receptors can be heterologously expressed in cell lines and binding assays can be conducted in membrane preparations from the cell lines using procedures outlined below. IC50 concentrations can be determined by nonlinear regression of concentration-dependent reduction in specific binding. The Cheng-Prussoff equation can be used to convert the IC50 to Ki concentrations.
[^3H]Spiperone binding to a membrane preparation from CHO-hD2L cells was carried out in 250 μl of 50 mM Tris-HCl buffer containing 100 mM NaCl, 1 mM MgCl2 and 1% DMSO at pH 7.4. Duplicate samples containing (in order of addition) the test compounds, 0.4 nM [^3H]spiperone and approximately 12 μg protein were incubated for 120 minutes at room temperature. Bound radioligand was separated by rapid filtration under reduced pressure through Whatman GF/B glass fiber filters previously treated with 0.3% polyethyleneimine. Radioactivity retained on the filter is determined by liquid scintillation spectrophotometry.

[2] = test system: spontaneous locomotor activity in rats; test: Spontaneous Locomotor Activity Inhibition Test; format: in vivo, rat; conditions: 60 min after dosing, recorded 1 hour, mean ± SEM
Description: Potential therapeutic effects of 2-{4-[4-(7-Fluoro-naphthalen-1-yl)-piperazin-1-yl]-butoxy}-5,6,7,9-tetrahydro-1,7,9-triaza-benzocyclohepten-8-one (hereinafter the “test compound”) were investigated in a spontaneous locomotor activity inhibition test in rats, a behavioral test predictive of antipsychotic activity. (A. E. Corbin, et. al.: PD 158771, a potential antipsychotic agent with D2/D3 partial agonist and 5-HT1A agonist actions. II. Prelinical behavioral effects. Neuropharmacology 39: 1211-1221 (2000)) The testing was performed using 16-Beam Digiscan Animal Activity Monitors (Accuscan Electronics, Columbus, Ohio). Each test chamber consisted of a PLEXIGLAS® box measuring 16×16 inches. These boxes were housed inside stainless steel, ventilated sound-attenuating chambers (SACs). Lights inside the SACs were off. Male Sprague-Dawley rats (Harlan), weighing 180 to 200 g at the time of testing, were used. Rats were provided with food and water ad libitum, but were food deprived for 24 hours before testing. Rats were randomly assigned to vehicle or drug treatment groups, and were tested one per chamber. On the test day, rats were removed from the housing room and brought to the test room, where they were placed into PLEXIGLAS® isolator cages on corncob bedding, 4 rats per cage. Rats were dosed orally (PO) with the test compound or vehicle, and then returned to the isolators. After a 60-minute absorption period, each rat was placed into the test chamber, the chamber door closed, and recording of locomotor activity begun. Locomotor activity was recorded for 1 hour, in 5-minute blocks. The test compound was suspended in 1% cremophor EL, 1% HCl 1N, and 0.5% methocel in water. The test compound or the vehicle was administered in a volume of 5 mL/kg. Doses are expressed as the active moiety (ie, base). Locomotor activity was measured as centimeters traveled and expressed as percent inhibition from vehicle control. Statistical analysis was performed using a one-way ANOVA followed by a post hoc Dunnett's test. Data from the vehicle-treated control groups from each experiment were compared using a one-way ANOVA.

T1 sequence (P14416 whole entry): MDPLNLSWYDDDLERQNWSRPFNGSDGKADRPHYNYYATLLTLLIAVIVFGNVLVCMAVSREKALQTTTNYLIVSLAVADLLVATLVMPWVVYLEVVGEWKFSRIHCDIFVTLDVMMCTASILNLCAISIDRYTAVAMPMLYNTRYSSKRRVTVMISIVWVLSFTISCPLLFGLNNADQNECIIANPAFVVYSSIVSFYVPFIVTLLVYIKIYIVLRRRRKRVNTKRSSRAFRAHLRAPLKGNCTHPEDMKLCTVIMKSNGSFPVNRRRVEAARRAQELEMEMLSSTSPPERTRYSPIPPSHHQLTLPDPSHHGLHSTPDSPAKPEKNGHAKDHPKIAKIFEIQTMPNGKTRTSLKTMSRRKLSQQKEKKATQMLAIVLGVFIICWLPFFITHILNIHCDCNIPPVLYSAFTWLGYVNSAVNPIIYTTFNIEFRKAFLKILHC

| Ki [1] [nM] | Compound | melting point [°C] | further results |
| --- | --- | --- | --- |
| – | O=C1NCCc2ccc(OCCCCN3CCN(c4cccc(Cl)c4Cl)CC3)nc2N1 (as salt: HCl) [Example 14, 2-{4-[4-(2,3-Dichloro-phenyl)-piperazin-1-yl]-butoxy}-5,6,7,9-tetrahydro-1,7,9-triaza-benzocyclohepten-8-one] | 197 to 199 | – |
| – | O=C1NCCc2ccc(OCCCN3CCN(c4cccc(Cl)c4Cl)CC3)cc2N1 [Example 28, 8-{3-[4-(2,3-Dichlorophenyl)piperazin-1-yl]propoxy}-1,3,4,5-tetrahydrobenzo[d][1,3]diazepin-2-one] | 183 to 184 | – |
| – | O=C1NCCc2ccc(OCCCCN3CCN(c4cccc(Cl)c4Cl)CC3)cc2N1 [Example 29, 8-{4-[4-(2,3-Dichlorophenyl)piperazin-1-yl]butoxy}-1,3,4,5-tetrahydrobenzo[d][1,3]diazepin-2-one] | 185 to 186 | – |
| 9.49 | O=C1NCCc2ccc(/C=C/CCCN3CCN(c4cccc(Cl)c4Cl)CC3)cc2N1 [Example 64] | 219 to 220 | – |
| 1.81 | O=C1NCCc2ccc(OCCCCN3CCN(c4cccc(C5CC5)n4)CC3)cc2N1 [Example 37] | 155 to 156 | – |
| – | O=C1NCCc2ccc(OCCCCN3CCN(c4cccc5c4OCCC5)CC3)nc2N1 (as salt: HCl) [Example 17, 2-[4-(4-Chroman-8-yl-piperazin-1-yl)-butoxy]-5,6,7,9-tetrahydro-1,7,9-triaza-benzocyclohepten-8-one] | 154 to 156 | – |
| – | O=C1NCCc2ccc(OCCCCN3CCN(c4cccc5ccc(F)cc45)CC3)nc2N1 (as salt: HCl) [Example 18, 2-{4-[4-(7-Fluoro-naphthalen-1-yl)-piperazin-1-yl]-butoxy}-5,6,7,9-tetrahydro-1,7,9-triaza-benzocyclohepten-8-one] | 234 | – |
| 70.9 | CC1(C)CCC(=O)Nc2cc(/C=C/CCCN3CCN(c4cccc(Cl)c4Cl)CC3)ccc21 [Example 69] | 108 to 109 | – |
| 56.5 | CC1(C)CCC(=O)Nc2cc(CCCCCN3CCN(c4cccc(Cl)c4Cl)CC3)ccc21 [Example 70, 8-{5-[4-(2,3-Dichlorophenyl)piperazin-1-yl]pentyl}-5,5-dimethyl-1,3,4,5-tetrahydrobenzo[b]azepin-2-one Methanesulfonic Acid] | 168 to 170 | – |
| – | CN1CCc2ccc(OCCCCN3CCN(c4cccc(Cl)c4Cl)CC3)cc2NC1=O [Example 25, 8-{4-[4-(2,3-Dichlorophenyl)piperazin-1-yl]butoxy}-3-methyl-1,3,4,5-tetrahydro-benzo[d][1,3]diazepin-2-one] | 139 to 140 | – |
| – | O=C1NCCc2ccc(OCCCCN3CCN(c4cccc5c4CCCC5)CC3)nc2N1 (as salt: HCl) [Example 16, 2-{4-[4-(5,6,7,8-Tetrahydro-naphthalen-1-yl)-piperazin-1-yl]-butoxy}-5,6,7,9-tetrahydro-1,7,9-triaza-benzocyclohepten-8-one] | 185 to 186 | – |
| – | CC1(C)CCC(=O)Nc2cc(OCCCN3CCN(c4cccc(Cl)c4Cl)CC3)ccc21 [Example 53, 8-{3-[4-(2,3-Dichlorophenyl)piperazin-1-yl]-propoxy}-5,5-dimethyl-1,3,4,5-tetrahydrobenzo[b]azepin-2-one] | 162 to 164 | – |
| 25 | CC1(C)CNC(=O)Nc2cc(CCCCCN3CCN(c4cccc(Cl)c4Cl)CC3)ccc21 [Example 67, 8-{5-[4-(2,3-Dichlorophenyl)piperazin-1-yl]pentyl}-5,5-dimethyl-1,3,4,5-tetrahydro-benzo[d][1,3]diazepin-2-one Methanesulfonic Acid] | 215 to 218 | – |
| – | CC1(C)CCc2ccc(OCCCCN3CCN(c4cccc(Cl)c4Cl)CC3)cc2NC1=O [Example 57, 8-{4-[4-(2,3-Dichlorophenyl)piperazin-1-yl]butoxy}-3,3-dimethyl-1,3,4,5-tetrahydrobenzo[b]azepin-2-one] | 110 to 112 | – |
| – | CC1(C)CCC(=O)Nc2cc(OCCCCCN3CCN(c4cccc(Cl)c4Cl)CC3)ccc21 [Example 55, 8-{5-[4-(2,3-Dichlorophenyl)piperazin-1-yl]-pentyloxy}-5,5-dimethyl-1,3,4,5-tetrahydrobenzo[b]azepin-2-one] | 128 to 130 | – |
| – | CC1(C)CCC(=O)Nc2cc(OCCCCN3CCN(c4cccc(Cl)c4Cl)CC3)ccc21 [Example 54, 8-{4-[4-(2,3-Dichlorophenyl)piperazin-1-yl]-butoxy}-5,5-dimethyl-1,3,4,5-tetrahydrobenzo[b]azepin-2-one] | 106 to 108 | – |
| – | O=C1NCCc2ccc(OCCCCN3CCN(c4cccc5ccccc45)CC3)nc2N1 (as salt: HCl) [Example 15, 2-[4-(4-Naphthalen-1-yl-piperazin-1-yl)-butoxy]-5,6,7,9-tetrahydro-1,7,9-triaza-benzocyclohepten-8-one] | 188 to 190 | – |
| 4.47 | O=C1NCCc2ccc(CCCCCN3CCN(c4cccc(Cl)c4Cl)CC3)cc2N1 [Example 65] | 159 to 161 | – |

| Compound | Ki [1] [nM] | melting point [°C] | further results |
| --- | --- | --- | --- |
| O=C1NCCc2ccc(OCCCCN3CCN(c4cccc5c4CCC5)CC3)nc2N1 [Example 13, 2-[4-(4-Indan-4-yl-piperazin-1-yl)-butoxy]-5,6,7,9-tetrahydro-1,7,9-triaza-benzocyclohepten-8-one] | 0.59 | 70 to 72 | – |
| O=C1NCCc2ccc(OCCCCN3CCN(c4cccc5ccc(F)cc45)CC3)nc2N1 [Example 18, 2-{4-[4-(7-Fluoro-naphthalen-1-yl)-piperazin-1-yl]-butoxy}-5,6,7,9-tetrahydro-1,7,9-triaza-benzocyclohepten-8-one] | 1.79 | – | Percent Decrease from Control (locomotor activity) ([2]; 0.1 mg/kg PO): 9.0 ± 37.9^c; Percent Decrease from Control (locomotor activity) ([2]; 0.3 mg/kg PO): 38.3 ± 47.2^bd; Percent Decrease from Control (locomotor activity) ([2]; 1 mg/kg PO): 53.7 ± 4.8^bd; Percent Decrease from Control (locomotor activity) ([2]; 3 mg/kg PO): 75.4 ± 3.5^cd |
| O=C1NCCc2ccc(OCCCCN3CCN(c4cccc5c4OCCCO5)CC3)nc2N1 [Example 20, 2-{4-[4-(3,4-Dihydro-2H-benzo[b][1,4]dioxepin-6-yl)-piperazin-1-yl]-butoxy}-5,6,7,9-tetrahydro-1,7,9-triaza-benzocyclohepten-8-one] | 1 | 78 to 79 | – |
| O=C1NCCc2ccc(OCCCCN3CCN(c4cccc5c4OCC5)CC3)nc2N1 [Example 19, 2-{4-[4-(2,3-Dihydro-benzofuran-7-yl)-piperazin-1-yl]-butoxy}-5,6,7,9-tetrahydro-1,7,9-triaza-benzocyclohepten-8-one] | 0.4 | 72 to 73 | – |
